US4276890A, “Tobacco smoking inhibitor” (priority 1979, dated 1981)

Experiments:
smoking behavior = conditions: cited from earlier work
[1] = system: tobacco consumption of habitual smokers; assay: General observations of treatment on tobacco consumption and subjective effects; assay type: in vivo, human (test subjects
Description: In a preferred embodiment, finely divided ethyl maltol is distributed in a chewing gum base, which when chewed by the subject, results in a gradual release of ethyl maltol into the oral cavity. When administered in appropriate amounts over a period of several days, there results a gradual decrease in the number of cigarettes smoked and the length of time they are smoked. […] Reductions in the frequency and quantity of smoking have been observed in test subjects who were unaware that their smoking behavior was monitored. […] Subjectively, test subjects experience a reduced desired to smoke, tend to neglect the opportunities to light up a cigarette and tend to leave cigarettes unsmoked in the ashtray after a few puffs. The effect is sufficiently subtle that a smoker is sometimes unaware that their tobacco consumption rate was decreased until such point as the lowered consumption rate becomes obvious. For smokers sincerely desiring to reduce or eliminate their smoking, the effect of the treatment is most gratifying. However, for smokers who are not psychologically committed to giving up smoking, the effects may be alarming. It is of course, possible to override the effects of the treatment by conscious effort to smoke at the pre-treatment rate.
Smoking behavior is complex and includes cigarette, pipe and cigar smoking. Both from the standpoint of habituation and of health hazard, cigarette smoking is considered to be the most serious. It is contemplated that the treatment method described herein will be effective to inhibit all forms of smoking behavior and combinations thereof, involving the consumption of tobacco. For convenience, the ensuing discussion focuses on cigarette smoking, as exemplary of smoking behavior in general. Tobacco consumption is a function the number of cigarettes smoked and the proportion of each cigarette smoked. Reduction of consumption is measured by comparison with a smoker's pretreatment consumption rate. All data used herein are expressed as percent reduction, i.e., the differential between pretreatment and current smoking consumption rate divided by the pretreatment rate, times 100. All rates are calculated to take into account both the number of cigarettes smoked and the proportion of each smoked.
Duration of treatment may be as little as ten days, preferably 20 to 30 days. As might be expected with a complex behavior such as smoking, where psychological and social factors play a major role in addition to individual variations in nicotine susceptibility and responsiveness to gamma pyrone, the rate of smoking reduction during treatment is highly variable. Typically, a gradual reduction to about 50% to the pretreatment rate is observed over the first four to six days. Frequently, little or no reduction is observed for the first two days, although occasionally a dramatic reduction is observed almost immediately. In the ensuing seven to ten days, further reductions, typically 70 to 100%, are observed. Reduction below the 50% level in the first 3-5 days is sometimes accompanied by the physiological (but not psychological) symptoms of nicotine withdrawl, such as vertigo, alimentary distress, diuresis, scotoma and disorientation. Such symptoms have never been observed in non-smoking control subjects using the same gamma pyrone dosages. […] The entire course of treatment is therefore extended somewhat, preferably to about 20 to 30 days total. […]

[2] = system: spontaneous motor activity; conditions: mice, 75 mg/kg; cited from earlier work
[3] = system: convulsions produced by pentylenetetrazole or strychnine; conditions: 300 to 500 mg per kg; cited from earlier work
[4] = system: hexobarbital-induced sleeping time; conditions: 300 to 500 mg per kg; cited from earlier work
mice = conditions: cited from earlier work
rat brain cortex slices = conditions: in vitro; cited from earlier work
[5] = cited from earlier work
[6] = cited from earlier work; remark: listed apart in the source
[7] = system: rate of weight gain in animals; conditions: animal feeds, up to 200 grams per ton; cited from earlier work

SMILES	effectiveness versus placebo for smoking (smoking behavior; controlled double blind tests)	pharmacological action (smoking behavior; in vivo)	withdrawal syndrome on discontinuation (smoking behavior; in vivo)	tobacco consumption of habitual smokers ([1]; appropriate dosage levels and rates)	minimum effective dose relative to ethyl maltol ([1]; in vivo) [times greater]	spontaneous motor activity, decrease [2]	convulsions produced by pentylenetetrazole or strychnine [3]	hexobarbital-induced sleeping time [4]	acute LD50 (mice) [mg per kg]	oxygen intake by rat brain cortex slices (rat brain cortex slices)	consumption per day ([5]; as much as 1.5 grams per day)	safe average daily intake ([5]; per day) [mg per kg]	absorption ([6]; after oral administration)	excretion ([6]; after oral administration)	form of excretion ([6]; after oral administration)	metabolism and excretion ([6]; in vivo)	rate of weight gain [7]
CN1[C@@H](CC(=O)c2ccccc2)CCC[C@H]1C[C@H](O)c1ccccc1 [lobeline]	ineffective, i.e., no more effective than placebos	weak nicotine-like action	apparently discontinuable without a withdrawal syndrome	–	–	–	–	–	–	–	–	–	–	–	–	–	–
Cc1occc(=O)c1O [maltol, 3-hydroxy-2-methyl-4-pyrone]	–	–	–	significantly reduces the tobacco consumption of habitual smokers	4 to 6	approximately 50%	inhibited convulsions	potentiating hexobarbital-induced sleeping time	820	not affected	completely harmless	1	rapidly absorbed	rapidly excreted	primarily as glucuronide and ethereal sulfate conjugates	rapidly metabolized and excreted	improves the rate of weight gain
